The values below come from patent US20160015064A1, “COMPOUNDS, COMPOSITIONS, AND METHODS FOR MODULATING SWEET TASTE” (CHROMOCELL CORPORATION, priority 2013, published 2016).

Test [1] concerns perception of the sweet taste in an aqueous environment. As to the kind of experiment: Trained descriptive analysis (DA) panel, sweet attribute. The format is in vivo, humans. The note with it: for Compound effects beyond the additive effect of inherent sweetness: 4% fructose and 8% sucrose. On the procedure:
The effect of the test compounds on the perception of the sweet taste in an aqueous environment, in the absence or presence of carbohydrate sweeteners, was evaluated using a descriptive analysis methodology with a group of trained panelists, as follows.
Candidate panelists were recruited, with prescreening and personal interviews, and were assessed for their ability to detect, recognize and differentiate basic taste attributes or mixtures thereof as part of a standardized acuity test. These candidate panelists were also assessed for their innate ability to identify flavors, and to rank on intensity scales. Other senses such as smell and vision were also included as part of the assessment. Candidates also were screened for their ability to use the language to describe and articulate ideas.
Selected candidates proceeded to training as a group in three phases: (1) Lexicon development, (2) Concept alignment, and (3) Scaling descriptors. During lexicon development, panelists evaluated products appropriate for use in the study to generate and align on terms describing the flavor, taste, aromatic, trigeminal, and temporal attributes. During concept alignment, the panel evaluated the products mentioned above to clarify and confirm the attributes that were generated during lexicon development using reference standards that appropriately define each attribute; these are either physical references (e.g. sucrose solutions) or verbal descriptions (e.g. overall flavor). Product terms and concepts were validated during this portion of the study.
In the last phase, scaling descriptors, the panel participated in a series of exercises focused on ordering and ranking samples according to relative attribute intensity, measuring attribute intensity using a defined length of line scale. Whenever possible, different levels or concentration of references were used as anchors to facilitate use of the scale. Panelists were provided with blinded references at this stage to evaluate their understanding and perception of the scale.
The panel used in this example was trained to reference sweet attributes in an absolute manner, such that a particular concentration of sweetener is always measured by the panelists at the same point using a 15 cm line scale where each cm represents a 1% increase in sucrose to cover the range of 0% to 15% sucrose. For the rest of the attributes, the panel was trained using a hybrid approach between descriptive analysis methods (e.g. quantitative descriptive analysis, the sensory spectrum, etc.) well-known to those skilled in the art.
The trained panel was then used for a descriptive analysis assessment for Compounds 1, 2 and 3 in aqueous solutions at pH 3 and pH 7. Each of the three compounds was tested at 35 ppm in sucrose and fructose sweeteners. In addition, Compounds 1, 2 and 3 were also examined in water at pH 3 and pH 7 to assess for any inherent sweetness.
The aqueous sweetener solutions were prepared by adding, fructose or sucrose (by weight), to water to achieve the desired concentration. Aqueous sucrose solutions at pH 3 were buffered using a final concentration of 0.096% Citric Acid plus 0.036% Sodium Citrate while aqueous fructose solutions at pH 3 were buffered using a final concentration of 0.06% Citric Acid and 0.0225% Sodium Citrate.
Compounds were first prepared as a […] concentrated stock solution in 100% ethanol. These concentrated stocks were then added to the aqueous sweetener solutions to result in a final ethanol concentration of 0.2%. In addition to compounds, a solubilizing agent at a final concentration of 0.02% was added to the aqueous sweetener solutions. Control samples were also balanced with 0.2% ethanol and in certain cases 0.02% solubilizing agent.
Both control (aqueous sweetener solutions without compound) and variant (aqueous sweetener solutions with compound) samples were blinded and randomized (by sweetener and pH blocks). […]

Test [2] has as its system perception of the sweet taste of an aqueous solution of sweetener. Put plainly: Two-alternative forced choice sip and spit method (2AFC). The format is in vivo, humans. On the procedure: The effect of the test compounds on the perception of the sweet taste of an aqueous solution of sweetener in humans was evaluated using a two-alternative forced choice “sip and spit” method (2AFC).
(§1) The aqueous sweetener solutions were prepared by adding, fructose, sucrose or glucose (by weight), to water to achieve the desired concentration.
Compounds were first prepared as a 500-fold concentrated stock solution in 100% ethanol. These concentrated stocks were then added to the aqueous sweetener solutions to result in a final ethanol concentration of 0.2%. The control (positive and negative) samples were also normalized to 0.2% ethanol. This level of ethanol was not seen to contribute any perceived sweetness.
The 2AFC test used for compound evaluation was a blind and randomized test where taste panelists (n=15) evaluate a pair of sweetener solutions at a time—one sample contains aqueous sweetener solution plus compound (i.e. test) while the other contains aqueous sweetener solution at higher concentration without compound (i.e. positive control). Each test sample was compared against a positive control. For example, if the test sample contained 1× sweetener concentration with compound (e.g. 5% sucrose with compound), the positive control sample contained a 1.1× sweetener concentration (e.g. 5.5% sucrose without compound).
Panelists were instructed not to eat or drink (except water) for at least 1 h before the test. During the test, panelists were instructed to sip each sample, swirl it around their mouth and then expectorate. After tasting each sample in the pair, panelists were instructed to record the sample that is “sweeter” in taste. Panelists cleansed their palates by rinsing with water, eating a cracker and waiting for an interval of about 5 minutes. Each pair was tasted twice. All samples were tasted at ambient temperatures. Data were analyzed using binomial probabilities.
Approximate levels of sweetness enhancement in column 5 of Table 2 were calculated as follows:
Approximate levels of sweetness enhancement=Sweetener concentration of positive control surpassed by the test sample, divided by sweetener concentration for compound-containing sample (e.g. 1.15×=5.75% sucrose/5% sucrose).

For test [3] the test system is unchanged. As to the kind of experiment: Ranking sip and spit test of sweetness perception (R index). The format is in vivo, humans. The note with it: compound 10 ppm, vs negative control. On the procedure: The effect of the test compounds on the perception of the sweet taste of an aqueous solution of sweetener in humans was evaluated using a ranking “sip and spit” method.
as §1
Compounds were first prepared as a 500-fold concentrated stock solution in 100% ethanol. These concentrated stocks were then added to the aqueous sweetener solutions to result in a final ethanol concentration of 0.2%. The control (positive and negative) samples were also normalized to 0.2% ethanol.
In the ranking test used for compound evaluation, taste panelists (n=15), rank samples in increasing order of sweetness. One set, comprising of 6 samples, was presented to each panelists at a given time and are asked to rank them in order of increasing sweetness.
Panelists were instructed not to eat or drink (except water) for at least 1 h before the test. During the test, panelists were instructed to sip each sample, swirl it around their mouth and then expectorate. After tasting each set, panelists were instructed to rank the 6 samples within the set from least sweet to most sweet. Where rank 1—is lowest in sweetness and rank 6—is highest in sweetness. Panelists cleansed their palates by rinsing with water, eating a cracker and waiting for an interval of 10 minutes. All samples were tasted at ambient temperatures. Each sample was tasted twice.
R index analysis was utilized to determine the degree of difference between a test and control sample. It indicates the level of discrimination between two samples. […] A positive control sample was used to assess the ability of the panelists to accurately discriminate sweetness perception differences from the negative control.

In another test the test system is flavor. Conditions: DuBois, et al., J. Med. Chem., 1981; cited from earlier work.
Setting [4] is: 4% fructose, pH 3, 35 ppm compound plus solubilizing agent.
The mark [5] stands for this setting: 4% fructose, pH 7, 35 ppm compound plus solubilizing agent.
Setting [6] is: 8% sucrose, pH 3, 35 ppm compound plus solubilizing agent.
[7] abbreviates: 8% sucrose, pH 7, 35 ppm compound plus solubilizing agent.

Take `COc1ccc(C2CC(=O)c3c(O)cccc3O2)cc1O` (racemic) [Compound 1, 5-hydroxy-2-(3-hydroxy-4-methoxyphenyl)chroman-4-one]: the “DA Panel Average Sweetness Intensity Score (on 15 cm scale)” value in test [1] (setting [4]) worked out at 6.94; in test [1] (setting [5]), 7.80; in test [1] (setting [6]) it was 9.31; in test [1] (setting [7]), 9.97; in test [1] (citric acid-citrate solution pH 3, no sweetener, 35 ppm compound plus solubilizing agent) it was 1.14; in test [1] (water pH 7, no sweetener, 35 ppm compound plus solubilizing agent, 1 cm = 1% sucrose) it was 1.57. For the same compound, the “Fold enhancement of sweetness perception as compared to control sweetener solution” value in test [1] (setting [4]) is on record as 1.38X; in test [1] (setting [5]), 1.78X; in test [1] (setting [6]), 1.29X; in test [1] (setting [7]), 1.33X. In test [1] (citric acid-citrate solution pH 3, 35 ppm compound plus solubilizing agent), the “Perceived inherent sweetness compared to solubilizing agent alone” value is “do not show further significant increase in perceived inherent sweetness”. Moreover, the “Compound effects beyond the additive effect of inherent sweetness” value is on record as “super-additive effects” in test [1] (pH 3, 35 ppm) and “super-additive effects” in test [1] (pH 7, 35 ppm). In addition, the “Perceived sweetness vs control sweetener solutions (FIG. 2)” value in test [1] (pH 3, fructose and sucrose, 35 ppm, ** p<0.01) is “significant increase in perceived sweetness”. Also, the “Perceived sweetness vs control sweetener solutions (FIG. 1)” value in test [1] (pH 7, fructose and sucrose, 35 ppm, ** p<0.01) is “significant increase in perceived sweetness”. Further, the “Perceived sweetness compared to solubilizing agent alone (inherent sweetness)” value in test [1] (water pH 7, 35 ppm compound plus solubilizing agent) is recorded as “further increase in perceived sweetness”. In addition, the “Fold increase in perceived sweetness” value in test [2] (test sample 4% fructose, compound 25 ppm with positive 2AFC) is listed as more than 1.20X; in test [2] (test sample 5% sucrose, compound 15 ppm with positive 2AFC, positive control surpassed / test sweetener concentration), more than 1.15X; in test [2] (test sample 6.5% glucose, compound 10, 25 ppm with positive 2AFC), more than 1.15X. Besides, the “R Index Score” value in test [3] (4% fructose test sample) came to 90; in test [3] (5% sucrose test sample, significant at R index ≧60) it was 93. In addition, the “Reported flavor (bitter)” value with flavor is “bitter flavor in a significant portion of tasters”. Moreover, the “Reported flavor (sweet)” value with flavor is on record as “sweet flavor”.
